The source of these data is US7348163B2, “Human GABAB receptor 1 promoters” (AstraZeneca AB, priority 1999, dated 2008).

The assay relates to human GABAB receptor 1 promoter P1b. Kind of assay: Luciferase reporter assay of GABAB receptor 1 promoter P1b activity (pAM440) in transfected ND7/23 cells. The format is cell-based. The conditions noted are these: Forskolin 10 μM + 1-methyl-3-isobutylxanthine 0.125 mM, 24 h. How it is done:
Reporter constructs containing R1a and R1b promoter fragments were generated by PCR using plasmid pAM 364, containing genomic sequence covering the promoter regions, as template. PCR reaction was performed by standard procedure (Perkin Elmer). Briefly, an initial denaturation at 95° C. for 4 min was followed by 35 cycles of denaturation at 95° C. for 1 min, annealing at 60° C. for 1 min, elongation at 72° C. for 1 min and finally a 7 min elongation at 72° C. […]
To determine putative promoter activity, the reporter gene constructs were introduced into mammalian cells by transfection. […] Luciferase activity in cell extracts was measured in a Luciferase Assay System (Promega), where 40 μl of cell extracts was added to a 96-well plate (Maxisorp, Nunc) and mixed with 50 μl of luciferase substrate. Luciferase activity was then measured in a LUMIstar (BMG Lab technologies). As internal control for transfection efficiency, β-Galactosidase (β-Gal.) activity was measured in 96-well plate (Maxisorp, Nunc) using a β-Galactosidase Enzyme Assay (Promega) according to suppliers protocol.
ND7/23 cells (4×10^5) were transfected with promoter-luciferase constructs as described above. […] After incubation, cells were harvested and luciferase activity measured. Luciferase activity, minus background, is shown as arbitrary light units measured in 40 μl of cell extracts. […]

Molecules are shown by their SMILES.

`CC(C)Cn1c(=O)n(C)c(=O)c2[nH]cnc21` [IBMX, 1-methyl-3-isobutylxanthine]: the “further enhancement of forskolin induced expression” value is reported as “does not show a significant difference”.
